Test [1] deals with T1, recombinant human bradykinin B2 receptor (Homo sapiens, UniProt P30411).
T1 construct: expressed in transfected cells; host or cells: Chinese hamster ovary (CHO) cells, membrane homogenates
T1 sequence (P30411 1-391): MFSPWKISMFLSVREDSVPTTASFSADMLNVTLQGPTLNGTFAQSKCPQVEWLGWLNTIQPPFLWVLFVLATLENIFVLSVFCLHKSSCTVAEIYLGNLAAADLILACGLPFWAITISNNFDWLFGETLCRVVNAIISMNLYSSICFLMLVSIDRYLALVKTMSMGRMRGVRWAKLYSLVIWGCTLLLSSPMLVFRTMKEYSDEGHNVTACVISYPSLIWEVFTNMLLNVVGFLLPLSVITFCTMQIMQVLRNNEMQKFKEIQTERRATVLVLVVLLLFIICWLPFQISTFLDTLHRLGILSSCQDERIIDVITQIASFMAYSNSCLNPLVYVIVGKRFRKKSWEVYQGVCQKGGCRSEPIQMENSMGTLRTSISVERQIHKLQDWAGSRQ
Description: [3H]-BK competition radioligand binding to human cloned B2 receptor (CHO cell membranes). Conditions: 0.2 nM [3H]-bradykinin, CHO membranes, 60 min 23° C.; mean ± SEM or single value; Ki from IC50 by Cheng-Prusoff; read-out: [3H]-BK Binding to Human Cloned B2 Receptor (Ki). The procedure:
Chinese hamster ovary (CHO) cell membrane homogenates (2.5 μg protein) expressing the recombinant human bradykinin B2 receptor were incubated for 60 min at 23° C. with 0.2 nM [^3H]-bradykinin (95.5 Ci/mmole, PerkinElmer) in the absence or presence of the test compound in a buffer containing 50 mM Tris/HCl (pH 7.4), 0.2 g/L 1-10-phenanthroline and 0.1% BSA. All reagent and test compound additions to the assay plates were made using Biomek 3000 robotic workstations (Beckman Instruments, Fullerton, Calif.). Nonspecific binding was determined in the presence of 1 μM unlabeled bradykinin. Following the incubation, the assay was terminated by rapid filtration under vacuum through glass fiber filters (GF/C, PerkinElmer) presoaked with 0.3% polyethyleneimine and rinsed several times with an ice-cold 50 mM Tris-HCl buffer using a 96-sample cell harvester (Tomtec). The filters were air-dried and the radioactivity counted in a beta-scintillation counter (Topcount, PerkinElmer) using a scintillation cocktail (Microscint 20, PerkinElmer) (Sharif and Whiting, Neurochem. Int. 18: 89-96, 1991). Competitive binding inhibition curves were generated using a 7-point concentration—response of test compound in duplicate. Bradykinin peptide was also tested as an internal control in the assay. The data were analyzed using nonlinear, iterative curve-fitting to obtain the potency and intrinsic activities of the test agents as previously described (Sharif et al. J. Pharmacol. Exp. Ther. 286: 1094-1102, 1998; Sharif et al. Invest Ophthalmol. Vis. Sci. 39:2562-2571, 1998; Kelly et al. J. Pharmacol. Exp. Ther. 304: 238-245, 2003). Determined IC50 values were converted to Ki values using the standard Cheng-Prusoff equation.

For test [2], the target named is T2, BK receptors in human ciliary muscle cells (h-CM) (Homo sapiens, UniProt P30411).
T2 construct: h-CM cells expressing BK receptors were seeded; endogenous in cells; host or cells: human ciliary muscle (h-CM) cells
T2 sequence (P30411 1-391): T1 sequence (P30411 1-391)
Nature of the test: Functional assay measuring [Ca2+]i mobilization (FLIPR) in h-CM cells. Type of test: cell-based. Conditions: class symbols (in μM), read-out: CaM (EC50). The procedure: On the day of the experiment, media was removed, cells were rinsed and 50 μL of serum-free media added. One vial of FLIPR Calcium Assay Kit dye was reconstituted in 50 mL of a FLIPR buffer consisting of Hank's Balanced Salt Solution (HBSS), 20 mM HEPES, and 2.5 mM probenecid, pH 7.4. Cells were loaded with the calcium-sensitive dye by addition of an equal volume (50 μL) to each well of the 96-well plate and incubated with dye for 1 h at 23° C. […] After this time, the test compound plate and cell plate were placed in a Fluorescence Imaging Plate Reader (FLIPR-Tetra®) instrument (Molecular Devices/MDSPharma, Sunnyvale, Calif.). At the beginning of an experimental run, a signal test was performed to check the basal fluorescence signal from the dye-loaded cells and the uniformity of the signal across the plate. […] An aliquot (25 μL) of the test compound was added to the existing 100 μL dye-loaded cells at a dispensing speed of 50 μL/sec. Intracellular calcium mobilization was measured by monitoring real-time changes in cellular fluorescence upon test compound addition. Fluorescence data were collected in real-time at 1.0 sec intervals for the first 60 seconds and at 6.0 second intervals for an additional 120 seconds. Baseline fluorescence readings were normalized across the plate and background-corrected from negative control wells. […] EC50 values were determined by 4-parameter nonlinear curve fitting of the concentration-response curve. Calibration of the instrument was performed using manufacturer's standard procedures.

In test [3] the test system is primary human ciliary muscle cells (h-CM). Description: Total prostaglandin (PG) release from primary h-CM cells (EIA). Format: cell-based. As to conditions: Homo sapiens, 1 h, 1 hour at 37° C., class symbols (in μM). Here is the method:
BK agonist compounds of Formula 1 were evaluated for the ability to induce prostaglandin (PG) release from primary human ciliary muscle cells (h-CM). Briefly, h-CM cells were grown to confluence in FNC-coated 24-well culture plates and serum-starved (0.8% FBS) for 24 hours prior to the experiment. Cells were stimulated with a 9-pt concentration-response (0.1 nM-10 μM) of bradykinin or BK agonist for 1 hour at 37° C. with subsequent sample recovery and processing for total PG measurement. Total PG measurement was determined using a total Prostaglandin Screening EIA kit (cat#514012) purchased from Cayman Chemical (Ann Arbor, Mich.). The assay was conducted according to the package insert from the manufacturer.

Drawing on US8252793B2, “Bradykinin receptor agonists and uses thereof to treat ocular hypertension and glaucoma” (Alcon Research, Ltd., priority 2010, dated 2012), this text covers Ki and EC50 for 16 molecules.

The structures appear in SMILES notation.

A word on the Ki: it is the dissociation constant of the complex between target and ligand, obtained from inhibition or displacement. In general, EC50 refers to the concentration at which the effect is half-maximal.

For `COc1nc2c(OCc3c(Cl)ccc(N(C)C(=O)CNC(=O)CNC4CCC(NC(C)=O)CC4)c3Cl)cccc2n1Cc1ccccn1` (stereo not drawn) [Compound 10, 2-(2-((4-acetamidocyclohexyl)amino)acetamido)-N-(2,4-dichloro-3-(((2-methoxy-1-(pyridin-2-ylmethyl)-1H-benzo[d]imidazol-4-yl)oxy)methyl)phenyl)-N-methylacetamide], the Ki in test [1] was found to be 76 ± 16 nM. Further, the EC50 was less than 0.1 µM in test [2] and more than 1 µM in test [3].
In the case of `CNC(=O)[C@@H]1CC[C@H](CCC(=O)NCC(=O)N(C)c2ccc(Cl)c(COc3cccc4c3nc(OC)n4Cc3ccccn3)c2Cl)CN1` [Compound 39, (2S,5R)-5-(3-((2-((2,4-dichloro-3-(((2-methoxy-1-(pyridin-2-ylmethyl)-1H-benzo[d]imidazol-4-yl)oxy)methyl)phenyl)(methyl)amino)-2-oxoethyl)amino)-3-oxopropyl)-N-methylpiperidine-2-carboxamide], the Ki in test [1] is 514 nM. In addition, the EC50 in test [2] and in test [3] was 0.1 to 1 µM in each case.
`CNC(=O)c1ccc(CCC(=O)NCC(=O)N(C)c2ccc(Cl)c(COc3cccc4c(OCc5ccccn5)cc(C)nc34)c2Cl)cn1` [Compound 27, 5-(3-((2-((2,4-dichloro-3-(((2-methyl-4-(pyridin-2-ylmethoxy)quinolin-8-yl)oxy)methyl)phenyl)(methyl)amino)-2-oxoethyl)amino)-3-oxopropyl)-N-methylpicolinamide]: in test [1], the Ki came out at 11 nM. Moreover, the EC50 in test [2] and in test [3] was 0.1 to 1 µM throughout.
Consider `CCc1nc2c(OCc3c(Cl)ccc(N(C)C(=O)CNC(=O)CCc4ccc(NC(C)=O)nc4)c3Cl)cccn2c1C(O)c1ccccn1` (stereo not drawn) [Compound 57], for which the Ki in test [1] is 852 nM. Further, the EC50 in test [2] is 0.1 to 1 µM; in test [3], more than 1 µM.
Take `CNC(=O)c1ccc(CCC(=O)NCC(=O)N(C)c2ccc(Cl)c(COc3cccc4c3nc(OC)n4Cc3ccccn3)c2Cl)cn1` [Compound 64, 5-(3-((2-((2,4-dichloro-3-(((2-methoxy-1-(pyridin-2-ylmethyl)-1H-benzo[d]imidazol-4-yl)oxy)methyl)phenyl)(methyl)amino)-2-oxoethyl)amino)-3-oxopropyl)-N-methylpicolinamide]: in test [1], the Ki was 40.3 nM. Moreover, the EC50 in test [2] and in test [3] was less than 0.1 µM in each case.
Take `CNC(=O)C1CCCN(CC(=O)NCC(=O)N(C)c2ccc(Cl)c(COc3cccc4c3nc(OC)n4Cc3ccccn3)c2Cl)C1` (stereo not drawn) [Compound 35, 1-(2-(2-((2,4-dichloro-3-((2-methoxy-1-(pyridin-2-ylmethyl)-1H-benzo[d]imidazol-4-yloxy)methyl)phenyl)(methyl)amino)-2-oxoethylamino)-2-oxoethyl)-N-methylpiperidine-3-carboxamide]: the Ki in test [1] is 396 nM. Besides, the figures for the EC50 in test [2] and in test [3] were less than 0.1 µM and 0.1 to 1 µM, respectively.
`CNCc1ccc(CCC(=O)NCC(=O)N(C)c2ccc(Cl)c(COc3cccc4c3nc(OC)n4Cc3ccccn3)c2Cl)cc1` [Compound 83]: in test [1], the Ki worked out at 329 nM. For the same molecule, the EC50 in test [2] is less than 0.1 µM; in test [3], more than 1 µM.
For the molecule `CNC(=O)c1ccc(C(=O)NCC(=O)N(C)c2ccc(Cl)c(COc3cccc4c3nc(OC)n4Cc3ccccn3)c2Cl)cn1` [Compound 69], the Ki in test [1] worked out at 178 nM. Besides, the EC50 in test [2] and in test [3] was less than 0.1 µM in each case.
Take `CNC(=O)N1CCN(CCCC(=O)NCC(=O)N(C)c2ccc(Cl)c(COc3cccc4c3nc(OC)n4Cc3ccccn3)c2Cl)CC1` [Compound 12]: the Ki in test [1] was 261 ± 195 nM. For the same molecule, the results for the EC50 in test [2] and in test [3] were less than 0.1 µM and more than 1 µM, respectively.
Take `COc1nc2c(OCc3c(Cl)ccc(N(C)C(=O)CNC(=O)CCc4cnc(NC(C)=O)nc4)c3Cl)cccc2n1Cc1ccccn1` [Compound 77]: the Ki in test [1] was determined as 229 nM. Also, the EC50 was less than 0.1 µM in test [2] and 0.1 to 1 µM in test [3].
Turning to `COc1nc2c(OCc3c(Cl)ccc(N(C)C(=O)CNC(=O)C4CCN(C5CCNC5)C4)c3Cl)cccc2n1Cc1ccccn1` (stereo not drawn) [Compound 22, N-(2-((2,4-dichloro-3-((2-methoxy-1-(pyridin-2-ylmethyl)-1H-benzo[d]imidazol-4-yloxy)methyl)phenyl)(methyl)amino)-2-oxoethyl)-1,3′-bipyrrolidine-3-carboxamide], in test [1], the Ki was 160 ± 47 nM. Also, the EC50 in test [2] was less than 0.1 µM; in test [3] it was more than 1 µM.
Take `CNC(=O)N1CCC(N2CCC(C(=O)NCC(=O)N(C)c3ccc(Cl)c(COc4cccc5c4nc(OC)n5Cc4ccccn4)c3Cl)C2)C1` (stereo not drawn) [Compound 24, N3-(2-((2,4-dichloro-3-((2-methoxy-1-(pyridin-2-ylmethyl)-1H-benzo[d]imidazol-4-yloxy)methyl)phenyl)(methyl)amino)-2-oxoethyl)-N1′-methyl-1,3′-bipyrrolidine-1′,3-dicarboxamide]: the Ki in test [1] stood at 171 ± 97 nM. Also, the EC50 was less than 0.1 µM in test [2] and 0.1 to 1 µM in test [3].
As to `COC(=O)Nc1ccc(CCC(=O)NCC(=O)N(C)c2ccc(Cl)c(COc3cccc4c3nc(OC)n4Cc3ccccn3)c2Cl)cn1` [Compound 2, methyl (5-(3-((2-((2,4-dichloro-3-(((2-methoxy-1-(pyridin-2-ylmethyl)-1H-benzo[d]imidazol-4-yl)oxy)methyl)phenyl)(methyl)amino)-2-oxoethyl)amino)-3-oxopropyl)pyridin-2-yl)carbamate], in test [1], the Ki is 101 nM. In addition, the EC50 in test [2] and in test [3] was less than 0.1 µM each time.
`COc1nc2c(OCc3c(Cl)ccc(N(C)C(=O)CNC(=O)CCC4CN=C(N[N+](=O)[O-])NC4)c3Cl)cccc2n1Cc1ccccn1` (stereo not drawn) [Compound 76]: the Ki in test [1] came out at 237 nM. In addition, the figures for the EC50 in test [2] and in test [3] were less than 0.1 µM and more than 1 µM, respectively.
Consider `COc1nc2c(OCc3c(Cl)ccc(N(C)C(=O)CNC(=O)CCc4ccc(C(=O)NCCO)cc4)c3Cl)cccc2n1Cc1ccccn1` [Compound 65], for which the Ki in test [1] is 98.4 nM. Further, the concentration for a half-maximal effect (EC50) in test [2] and in test [3] was less than 0.1 µM throughout.
With `COc1nc2c(OCc3c(Cl)ccc(N(C)C(=O)CNC(=O)CCc4ccc(NC(=O)CN)nc4)c3Cl)cccc2n1Cc1ccccn1` [Compound 74, 3-(6-(2-aminoacetamido)pyridin-3-yl)-N-(2-((2,4-dichloro-3-(((2-methoxy-1-(pyridin-2-ylmethyl)-1H-benzo[d]imidazol-4-yl)oxy)methyl)phenyl)(methyl)amino)-2-oxoethyl)propanamide], the Ki in test [1] was determined as 384 nM. Further, the half-maximal effective concentration (EC50) in test [2] is less than 0.1 µM; in test [3], 0.1 to 1 µM.
